According to the NIST ThermoML archive (doi:10.1007/s10765-013-1404-4):
Numbers after ± are expanded uncertainties.

Experiments:
[1] = Crystal; DTA
[2] = Molar enthalpy of transition or fusion; conditions: Crystal; DSC

Row | Compound | Normal melting temperature [1] | Molar enthalpy of transition or fusion [2]
1 | CCN(C(=O)N(CC)c1ccccc1)c1ccccc1 [1,3-diethyl-1,3-diphenylurea] | 71.87 ± 0.41 °C | 8.02 ± 0.454 kcal/mol
2 | CCN(N=O)c1ccc([N+](=O)[O-])cc1 [N-nitroso-N-ethyl-4-nitroaniline] | 118.60 ± 0.41 °C | 7.45 ± 0.454 kcal/mol
3 | c1ccc(Nc2ccccc2)cc1 [diphenylamine] | 53.50 ± 0.41 °C | 4.7 ± 0.454 kcal/mol

More lines, now with the values ahead:

Row | Normal melting temperature [1] | Molar enthalpy of transition or fusion [2] | Compound
4 | 74.79 ± 0.41 °C | 6.25 ± 0.454 kcal/mol | O=[N+]([O-])c1ccccc1Nc1ccccc1 [2-nitrodiphenylamine]
5 | 172.30 ± 0.41 °C | 4.39 ± 0.454 kcal/mol | O=[N+]([O-])c1ccccc1Nc1ccccc1[N+](=O)[O-] [bis(2-nitrophenyl)amine]
